PMC11042424, “Development of a First-in-Class RIPK1 Degrader to Enhance Antitumor Immunity” (Research Square, 2024)
Like-named read-outs stand apart in the source and are kept apart here.

Molecular target: T1, nLuc-RIPK1 fusion protein (Homo sapiens, UniProt Q13546)
T1 construct: expressed in transfected cells
T1 sequence (Q13546 1-671): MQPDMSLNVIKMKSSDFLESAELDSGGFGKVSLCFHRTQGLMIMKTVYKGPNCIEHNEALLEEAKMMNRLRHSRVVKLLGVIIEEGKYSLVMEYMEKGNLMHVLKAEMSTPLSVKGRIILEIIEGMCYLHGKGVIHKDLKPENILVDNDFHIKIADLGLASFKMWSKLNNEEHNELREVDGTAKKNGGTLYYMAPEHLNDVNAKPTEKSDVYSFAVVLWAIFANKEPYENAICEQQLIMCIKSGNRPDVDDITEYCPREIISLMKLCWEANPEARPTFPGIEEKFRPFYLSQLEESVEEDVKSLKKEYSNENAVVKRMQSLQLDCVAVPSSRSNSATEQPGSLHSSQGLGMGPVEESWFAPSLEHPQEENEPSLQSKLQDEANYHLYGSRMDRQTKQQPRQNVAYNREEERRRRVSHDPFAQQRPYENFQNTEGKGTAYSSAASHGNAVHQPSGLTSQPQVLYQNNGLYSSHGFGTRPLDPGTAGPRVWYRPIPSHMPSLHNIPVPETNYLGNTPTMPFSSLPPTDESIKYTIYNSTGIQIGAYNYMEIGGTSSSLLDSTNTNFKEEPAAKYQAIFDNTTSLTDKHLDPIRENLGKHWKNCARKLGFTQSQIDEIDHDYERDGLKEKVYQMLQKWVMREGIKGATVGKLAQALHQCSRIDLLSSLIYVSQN
Experiment: NanoBRET based in-cell RIPK1 target engagement
Method: Figure 2 LD4172, a RIPK1 PROTAC, induces potent and highly specific degradation of RIPK1 in a panel of cell lines. A, Chemical structures of RIPK1 PROTAC, LD4172, and its negative control, LD4172-NC. […] B, Quantification of RIPK1 levels in both Jurkat and B16F10 cells treated with LD4172 at indicated concentrations for 24 h, followed by Western blotting. C, DC50 and Dmax of LD4172 in various human and mouse cell lines. DC50, the drug concentration causing 50% protein degradation; Dmax, the maximum level of protein degradation. D, RIPK1 degradation kinetics induced by LD4172 treatment (1 μM) and resynthesis kinetics upon washout of LD4172 in both Jurkat and B16F10 cells. E, Quantification of D. The degradation half-life of RIPK1 induced by LD4172 (1 μM) is <2 h in Jurkat and B16F10 cells. […] F, NanoBRET based in-cell RIPK1 target engagement. HEK293 cells were transfected with a plasmid expressing nLuc-RIPK1 fusion protein for 24 h, followed by incubating with a RIPK1 NanoBRET tracer (500 nM) and different concentrations of LD4172 and LD4172-NC (n=3). G, Time-resolved fluorescence resonance energy transfer (TR-FRET) based biochemical binding assay for RIPK1. GST-tagged human RIPK1 (1 nM), Tb-labeled anti-GST antibody (0.3 nM), a RIPK1 TR-FRET tracer (350 nM) and different concentrations of LD4172 (n=3) were incubated for 2 hours, followed by TR-FRET measurements with an excitation wavelength at 340 nm and emission wavelengths at 495 and 520 nm. H, NanoBRET based in-cell assay for ternary complex formation. HEK293T cells were co-transfected with nLuc-RIPK1 and VHL-HaloTag plasmids for 24 h, followed by treatment with indicated concentrations of LD4172 or LD4172-NC (n=3). I, LD4172 induced RIPK1 degradation depends on ternary complex formation, neddylation and proteasome activity. Representative immunoblots of RIPK1 in both Jurkat and B16F10 cells. Cells were treated with RIPK1 inhibitor (T2I), VHL ligand, a neddylation inhibitor (MLN4924) or a proteasome inhibitor (Carfilzomib) at indicated concentrations for 4 hours, followed by LD4172 treatment for 4 hours. J, Proteome profiling of LD4172 induced protein degradation. MDA-MB- 231 cells were treated with LD4172 (200 nM) or LD4172-NC (200 nM) for 6 h (n=3). In total, ~10,000 proteins were quantified in the proteomics experiment. […] Blue dots represent kinases that are inhibited by the warhead of LD4172 but not degraded by LD4172.
To elucidate the formation of a binary complex during RIPK1 degradation, we developed a competitive NanoBRET (Nano-Bioluminescence Resonance Energy transfer)-based target engagement (TE) assay to quantify the binding between RIPK1 and LD4172 in cells[12],[13]. First, we developed a RIPK1 tracer by conjugating the LD4172 warhead T2I with a BODIPY-590 fluorescent dye, dubbed T2–590 (refer to Supporting Information for details). The dissociation equilibrium constant (Kd) between the tracer and RIPK1 was determined to be 0.5 μM by titrating the tracer in HEK293T cells expressing a nLuc-RIPK1 fusion protein. […] This is usually expected, considering that the large molecular weight of LD4172 may lead to poor cellular permeability.

## Cc1ncsc1-c1ccc([C@H](C)NC(=O)[C@@H]2C[C@@H](O)CN2C(=O)[C@@H](NC(=O)CCCCCCCCCCC(=O)NCCCn2cc(-c3ccc4c(c3)CCN4C(=O)Cc3cccc(OC(F)(F)F)c3)c3c(N)ncnc32)C(C)(C)C)cc1 [LD4172]
Cheng-Prusoff equation, read-out: apparent Ki between compound and RIPK1 in the cells
  Ki: 1.9 µM
HEK293 cells, tracer 500 nM, n=3, read-out: IC50 (nM), Fig. 2F
  IC50: 3750 nM
Tracer concentration at its Kd value, read-out: IC50, competition with tracer
  IC50: 3700 nM
